For 4 molecules, Ki and Kd results are on record in patent publication US10501411B2, “Substituted benzamides” (Hoffmann-La Roche Inc., priority 2009, dated 2019).

Molecules are shown by their SMILES.

The target in assay [1] is rat TAAR1 (Rattus norvegicus (Rat), UniProt Q923Y9). Kind of assay: Radioligand binding assay on rat TAAR1. Conditions: for Ki: rat TAAR1, HEK-293 membranes, second value of the mouse/rat pair. How it is done: (§1) Construction of TAAR Expression Plasmids and Stably Transfected Cell Lines
Chain of rat TAAR1 (Q923Y9 whole entry): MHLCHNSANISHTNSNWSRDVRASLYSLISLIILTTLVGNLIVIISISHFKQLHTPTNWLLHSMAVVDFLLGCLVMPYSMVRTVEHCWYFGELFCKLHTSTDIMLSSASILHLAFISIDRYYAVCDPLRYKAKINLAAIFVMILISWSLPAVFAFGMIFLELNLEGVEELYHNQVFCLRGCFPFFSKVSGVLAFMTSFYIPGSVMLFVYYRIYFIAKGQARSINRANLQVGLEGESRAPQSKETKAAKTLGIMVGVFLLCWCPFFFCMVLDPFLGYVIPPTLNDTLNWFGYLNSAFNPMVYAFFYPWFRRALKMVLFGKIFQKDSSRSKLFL
(§2) For the construction of expression plasmids the coding sequences of human, rat and mouse TAAR 1 were amplified from genomic DNA essentially as described by Lindemann et al.. The Expand High Fidelity PCR System (Roche Diagnostics) was used with 1.5 mM Mg^2+ and purified PCR products were cloned into pCR2.1-TOPO cloning vector (Invitrogen) following the instructions of the manufacturer. PCR products were subcloned into the pIRESneo2 vector (BD Clontech, Palo Alto, Calif.), and expression vectors were sequence verified before introduction in cell lines.
(§3) HEK293 cells (ATCC #CRL-1573) were cultured essentially as described by Lindemann et al. (2005). For the generation of stably transfected cell lines HEK293 cells were transfected with the pIRESneo2 expression plasmids containing the TAAR coding sequences (described above) with Lipofectamine 2000 (Invitrogen) according to the instructions of the manufacturer, and 24 hrs post transfection the culture medium was supplemented with 1 mg/ml G418 (Sigma, Buchs, Switzerland). After a culture period of about 10 d clones were isolated, expanded and tested for responsiveness to trace amines (all compounds purchased from Sigma) with the cAMP Biotrak Enzyme immunoassay (EIA) System (Amersham) following the non-acetylation EIA procedure provided by the manufacturer.
Radioligand Binding Assay on Rat TAAR1
(§4) Membrane Preparation and Radioligand Binding.
HEK-293 cells stably expressing rat TAAR1 were maintained at 37° C. and 5% CO2 in DMEM high glucose medium, containing fetal calf serum (10%, heat inactivated for 30 min at 56° C.), penicillin/streptomycin (1%), and 375 μg/ml geneticin (Gibco). Cells were released from culture flasks using trypsin/EDTA, harvested, washed twice with ice-cold PBS (without Ca^2+ and Mg^2+), pelleted at 1,000 rpm for 5 min at 4° C., frozen and stored at −80° C. Frozen pellets were suspended in 20 ml HEPES-NaOH (20 mM, pH 7.4) containing 10 mM EDTA and homogenized with a Polytron (PT 6000, Kinematica) at 14,000 rpm for 20 s. The homogenate was centrifuged at 48,000×g for 30 min at 4° C. Subsequently, the supernatant was removed and discarded, and the pellet resuspended in 20 ml HEPES-NaOH (20 mM, pH 7.4) containing 0.1 mM EDTA using the Polytron (20 s at 14,000 rpm). This procedure was repeated and the final pellet resuspended in HEPES-NaOH containing 0.1 mM EDTA and homogenized using the Polytron. […] With each new membrane batch the dissociation constant (Kd) was determined via a saturation curve. […] After addition of 45 μl of Microscint 40 (PerkinElmer) the Unifilter-96 plate was sealed and after 1 hr the ratioactivity counted using a TopCount Microplate Scintillation Counter (Packard Instrument Company).

Assay [2] deals with mouse TAAR1 (Mus musculus (Mouse), UniProt Q923Y8). Put plainly: Radioligand binding assay on mouse TAAR1. The following applies: for Ki: mouse TAAR1, HEK-293 membranes, first value of the mouse/rat pair. How it is done:
as §1, §2, §3
Radioligand Binding Assay on Mouse TAAR1
as §4
HEK-293 cells stably expressing mouse TAAR1 were maintained at 37° C. and 5% CO2 in DMEM high glucose medium, containing fetal calf serum (10%, heat inactivated for 30 min at 56° C.), penicillin/streptomycin (1%), and 375 μg/ml geneticin (Gibco). […] With each new membrane batch the dissociation constant (Kd) was determined via a saturation curve. […] After addition of 45 μl of Microscint 40 (PerkinElmer) the Unifilter-96 plate was sealed and after 1 hr the ratioactivity counted using a TopCount Microplate Scintillation Counter (Packard Instrument Company).

Chain of mouse TAAR1 (Q923Y8 whole entry): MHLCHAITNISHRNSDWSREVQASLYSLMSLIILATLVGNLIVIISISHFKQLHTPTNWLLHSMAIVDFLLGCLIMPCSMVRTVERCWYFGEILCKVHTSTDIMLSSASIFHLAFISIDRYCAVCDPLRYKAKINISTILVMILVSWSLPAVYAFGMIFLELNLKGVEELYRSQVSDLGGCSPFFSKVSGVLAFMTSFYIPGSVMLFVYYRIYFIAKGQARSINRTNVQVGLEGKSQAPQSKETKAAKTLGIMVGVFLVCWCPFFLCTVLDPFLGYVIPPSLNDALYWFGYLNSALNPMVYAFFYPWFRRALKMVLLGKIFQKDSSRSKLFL

On to `CC1(c2ccc(NC(=O)c3ccc(Cl)cc3)cc2)CCN(Cc2ccccc2)C1` (racemic) [Example 40, (RS)—N-[4-(1-Benzyl-3-methyl-pyrrolidin-3-yl)-phenyl]-4-chloro-benzamide], for which the affinity in assay [1] corresponds to a Ki of 0.522 µM.
As to `O=C(Nc1cccc(OC2CCNC2)c1)c1ccc(Cl)cc1` (racemic) [Example 70, (RS)-4-Chloro-N-[3-(pyrrolidin-3-yloxy)-phenyl]-benzamide], the inhibition constant Ki was 0.0097 µM in assay [2] and 0.0935 µM in assay [1].
On to `CC(CC(F)(F)F)OC(=O)Nc1ccc(C2CCNC2)cc1` (racemic) [Example 131, (RS)-(4-Pyrrolidin-3-yl-phenyl)-carbamic acid (RS)-3,3,3-trifluoro-1-methyl-propyl ester], for which the Ki in assay [2] worked out at 0.0208 µM; in assay [1], 0.0219 µM.
For `CCN(C[C@H]1COC(N)=N1)c1ccccc1` [^3[H]—(S)-4-[(ethyl-phenyl-amino)-methyl]-4,5-dihydro-oxazol-2-ylamine, reference compound], the Kd was approximately 0.7 nM in assay [2] (mouse TAAR1 membranes, saturation curve, read-out: dissociation constant (Kd) of the radioligand) and approximately 2.3 nM in assay [1] (rat TAAR1 membranes, saturation curve, read-out: dissociation constant (Kd) of the radioligand).

What is called Ki is a measure of affinity in units of concentration, obtained from inhibition or displacement. Low values mean tighter binding, high ones weaker binding. What is called Kd is the constant that tells how readily two partners part at equilibrium.
